Data on two molecules can be found in article PMC3268775 (Journal of the American Chemical Society, 2012).

One data set is described as follows: pKa of [Re]–F3Y–βC19. It counts as physicochemical. As to conditions: pH 8.3.
The conditions of data set [1]: pH 8.3; cited from earlier work.
The next data set deals with α2: β2 complex. The following applies: cited from earlier work.

As to `N[C@@H](Cc1c(F)cc(O)c(F)c1F)C(=O)O` [F3Y, 2,3,6-trifluorotyrosine], the F3Y deprotonated in “pKa of [Re]–F3Y–βC19” was ~ 94%. Further, the “reduction potential of F3Y above tyrosine” value in data set [1] is listed as ~ 180 mV.

B1: wild type α2: β2 complex: E. coli class Ia ribonucleotide reductase (protein, UniProt P00452 1-761; P69924 2-376, looked up)
Ribonucleoside-diphosphate … 1: MNQNLLVTKRDGSTERINLDKIHRVLDWAAEGLHNVSISQVELRSHIQFYDGIKTSDIHETIIKAAADLISRDAPDYQYLAARLAIFHLRKKAYGQFEPPALYDHVVKMVEMGKYDNHLLEDYTEEEFKQMDTFIDHDRDMTFSYAAVKQLEGKYLVQNRVTGEIYESAQFLYILVAACLFSNYPRETRLQYVKRFYDAVSTFKISLPTPIMSGVRTPTRQFSSCVLIECGDSLDSINATSSAIVKYVSQRAGIGINAGRIRALGSPIRGGEAFHTGCIPFYKHFQTAVKSCSQGGVRGGAATLFYPMWHLEVESLLVLKNNRGVEGNRVRHMDYGVQINKLMYTRLLKGEDITLFSPSDVPGLYDAFFADQEEFERLYTKYEKDDSIRKQRVKAVELFSLMMQERASTGRIYIQNVDHCNTHSPFDPAIAPVRQSNLCLEIALPTKPLNDVNDENGEIALCTLSAFNLGAINNLDELEELAILAVRALDALLDYQDYPIPAAKRGAMGRRTLGIGVINFAYYLAKHGKRYSDGSANNLTHKTFEAIQYYLLKASNELAKEQGACPWFNETTYAKGILPIDTYKKDLDTIANEPLHYDWEALRESIKTHGLRNSTLSALMPSETSSQISNATNGIEPPRGYVSIKASKDGILRQVVPDYEHLHDAYELLWEMPGNDGYLQLVGIMQKFIDQSISANTNYDPSRFPSGKVPMQQLLKDLLTAYKFGVKTLYYQNTRDGAEDAQDDLVPSIQDDGCESGACKI
Ribonucleoside-diphosphate … 2: AYTTFSQTKNDQLKEPMFFGQPVNVARYDQQKYDIFEKLIEKQLSFFWRPEEVDVSRDRIDYQALPEHEKHIFISNLKYQTLLDSIQGRSPNVALLPLISIPELETWVETWAFSETIHSRSYTHIIRNIVNDPSVVFDDIVTNEQIQKRAEGISSYYDELIEMTSYWHLLGEGTHTVNGKTVTVSLRELKKKLYLCLMSVNALEAIRFYVSFACSFAFAERELMEGNAKIIRLIARDEALHLTGTQHMLNLLRSGADDPEMAEIAEECKQECYDLFVQAAQQEKDWADYLFRDGSMIGLNKDILCQYVEYITNIRMQAVGLDLPFQTRSNPIPWINTWLVSDNVQVAPQEVEVSSYLVGQIDSEVDTDDLSNFQL
On to B1, for which the baseline catalytic turnover in the data set with α2: β2 complex was 2 to 10 s⁻¹.
